In patent US9242996B2 (Novartis AG, priority 2013, dated 2016):

Experiments:
Assay type in all cases: biochemical
[1] = molecular target: ERK2 (Homo sapiens (Human), UniProt P28482); assay: ERK2 Alphascreen
[2] = molecular target: T1, activated ERK2 (Homo sapiens (Human), UniProt P28482); assay: Activated ERK2 (20 pM) Kinase Assay (AlphaScreen, ERKtide phosphorylation); settings: 0.02 nM ERK2, 400 nM ERKtide peptide, 35 μM ATP, 30 min preincubation
In short: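 Activated human ERK2 (0.02 nM) preincubated 30 min with compounds, then 400 nM ERKtide and 35 μM ATP added for 4 h at ambient temperature in HEPES pH 7.5, MgCl2, DTT, Tween-20, BSA. EDTA stop; phospho-peptide read by AlphaScreen after overnight dark incubation; four-parameter IC50.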

[3] = molecular target: T1, activated ERK2; assay: Activated ERK2 kinase assay, ERK2 New conditions (AlphaScreen, ERKtide phosphorylation); settings: 0.25 nM ERK2, 200 nM ERKtide peptide, 35 μM ATP, 30 min preincubation
In short: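 0.25 nM ERK2 preincubated 30 min with compound, then reacted 2–3 h at ambient temperature with 200 nM ERKtide and 35 µM ATP (final) in HEPES pH 7.5 buffer. EDTA stop; phospho-peptide detected by AlphaScreen after overnight incubation; IC50 from four-parameter fit.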

T1 sequence (P28482 whole entry): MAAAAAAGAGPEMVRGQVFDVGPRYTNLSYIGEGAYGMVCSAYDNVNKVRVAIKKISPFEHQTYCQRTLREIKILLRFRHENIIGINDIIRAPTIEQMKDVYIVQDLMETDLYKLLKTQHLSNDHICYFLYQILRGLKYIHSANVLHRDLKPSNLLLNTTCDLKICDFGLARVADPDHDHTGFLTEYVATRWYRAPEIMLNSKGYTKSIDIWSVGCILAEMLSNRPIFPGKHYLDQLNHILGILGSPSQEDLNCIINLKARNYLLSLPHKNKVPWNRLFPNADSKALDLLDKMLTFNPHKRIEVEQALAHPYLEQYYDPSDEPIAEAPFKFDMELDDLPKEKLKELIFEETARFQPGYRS
ERK2, sequence (P28482 whole entry, species assumed): as the sequence (P28482 whole entry) above

Row | SMILES | IC50 [1] | IC50 [2] | IC50 [3]
1 | Nc1ncc(C2CCNCC2)cc1-c1ccc(C(=O)N[C@H](CO)c2ccccc2)c(F)c1 [Example 2, (S)-4-(2-amino-5-(piperidin-4-yl)pyridin-3-yl)-2-fluoro-N-(2-hydroxy-1-phenylethyl)benzamide] | 192 nM | – | –
2 | Nc1ncc(C2CCOCC2)cc1-c1ccc(C(=O)N[C@H](CO)c2ccccc2)cc1 [Example 64, (S)-4-(2-amino-5-(tetrahydro-2H-pyran-4-yl)pyridin-3-yl)-N-(2-hydroxy-1-phenylethyl)benzamide] | 3.64 nM | 4.36 nM | –
3 | Nc1ncc(C2CCOCC2)cc1-c1ccc(C(=O)NCc2ccccc2)cc1 [Example 66, 4-(2-amino-5-(tetrahydro-2H-pyran-4-yl)pyridin-3-yl)-N-benzylbenzamide] | 55.3 nM | 41.8 nM | –
4 | CN(C)c1cccc(CNC(=O)c2ccc(-c3cc(C4CCOCC4)cnc3N)cc2)c1 [Example 67, 4-(2-amino-5-(tetrahydro-2H-pyran-4-yl)pyridin-3-yl)-N-(3-(dimethylamino)benzyl)benzamide] | 85.5 nM | 67.7 nM | –
5 | C[C@@H](NC(=O)c1ccc(-c2cc(C3CCOCC3)cnc2N)cc1)c1ccccc1 [Example 69, (R)-4-(2-amino-5-(tetrahydro-2H-pyran-4-yl)pyridin-3-yl)-N-(1-phenylethyl)benzamide] | 16 nM | 10 nM | –
6 | Cc1cc(C(=O)N[C@H](CO)c2ccccc2)ccc1-c1cc(C2CCOCC2)cnc1N [Example 70, (S)-4-(2-amino-5-(tetrahydro-2H-pyran-4-yl)pyridin-3-yl)-N-(2-hydroxy-1-phenylethyl)-3-methylbenzamide] | 574 nM | 331 nM | –
7 | Nc1ncc(C2CCOCC2)cc1-c1ccc(C(=O)N[C@H](CO)c2ccccc2)cc1F [Example 71, (S)-4-(2-amino-5-(tetrahydro-2H-pyran-4-yl)pyridin-3-yl)-3-fluoro-N-(2-hydroxy-1-phenylethyl)benzamide] | 17.2 nM | 8.78 nM | –
8 | Nc1ncc(C2CCS(=O)(=O)CC2)cc1-c1ccc(C(=O)N[C@H](CO)c2ccccc2)cc1 [Example 77, (S)-4-(2-amino-5-(1,1-dioxidotetrahydro-2H-thiopyran-4-yl)pyridin-3-yl)-N-(2-hydroxy-1-phenylethyl)benzamide] | 97.6 nM | 50.8 nM | –
9 | C[C@@H]1COCCN1c1cnc(N)c(-c2ccc(C(=O)N[C@H](CO)c3ccccc3)c(F)c2)c1 [Example 84, 4-(2-amino-5-((R)-3-methylmorpholino)pyridin-3-yl)-2-fluoro-N-((S)-2-hydroxy-1-phenylethyl)benzamide] | 9.64 nM | 2.05 nM | –
10 | Nc1ncc(C2CCOCC2)nc1-c1ccc(C(=O)NCc2cccc(Cl)c2)c(F)c1 [Example 173, 4-(3-amino-6-(tetrahydro-2H-pyran-4-yl)pyrazin-2-yl)-N-(3-chlorobenzyl)-2-fluorobenzamide] | 0.758 nM | – | –
11 | Nc1ncc([C@H]2CC[C@@H](N)CC2)nc1-c1ccc(C(=O)N[C@H](CO)c2cccc(Cl)c2)c(F)c1 [Example 192, 4-(3-amino-6-((1s,4R)-4-aminocyclohexyl)pyrazin-2-yl)-N—((S)-1-(3-chlorophenyl)-2-hydroxyethyl)-2-fluorobenzamide] | – | 4.93 nM | 8.04 nM
12 | Nc1ncc(C2CCCCC2)nc1-c1ccc(C(=O)NCc2ccccc2)c(F)c1 [Example 421, 4-(3-amino-6-cyclo-hexylpyrazin-2-yl)-N-benzyl-2-fluorobenzamide] | – | 6.38 nM | 12.6 nM
13 | Nc1ncc(C2=CCCCC2)nc1-c1ccc(C(=O)NCc2ccccc2)c(F)c1 [Example 424, 4-(3-amino-6-(cyclohex-1-en-1-yl)pyrazin-2-yl)-N-benzyl-2-fluorobenzamide] | – | 113 nM | 155 nM
14 | Nc1ncc(C2=CCOCC2)nc1-c1ccc(C(=O)NCc2ccccc2)c(F)c1 [Example 427, 4-(3-amino-6-(3,6-dihydro-2H-pyran-4-yl)pyrazin-2-yl)-N-benzyl-2-fluorobenzamide] | – | 6.41 nM | 16.7 nM

Other lines, results leading:

Row | IC50 [1] | IC50 [2] | IC50 [3] | SMILES
15 | 1.84 nM | 0.684 nM | – | Cc1cc(-c2cc(C3CCOCC3)cnc2N)ccc1C(=O)N[C@H](CO)c1ccccc1 [Example 65, (S)-4-(2-amino-5-(tetrahydro-2H-pyran-4-yl)pyridin-3-yl)-N-(2-hydroxy-1-phenylethyl)-2-methylbenzamide]
16 | 0.584 nM | 0.51 nM | – | Nc1ncc(-c2ccncc2)cc1-c1ccc(C(=O)N[C@H](CO)c2ccccc2)cc1 [Example 80, (S)-4-(6-amino-[3,4′-bipyridin]-5-yl)-N-(2-hydroxy-1-phenylethyl)benzamide]
17 | 2.13 nM | 0.9 nM | – | Cc1cnccc1-c1cnc(N)c(-c2ccc(C(=O)N[C@H](CO)c3ccccc3)cc2)c1 [Example 82, (S)-4-(6-amino-3′-methyl-3,4′-bipyridin-5-yl)-N-(2-hydroxy-1-phenylethyl)benzamide]
18 | – | 0.0923 nM | 0.191 nM | Cn1cc(-c2cnc(N)c(-c3ccc(C(=O)N[C@H](CO)c4cccc(Cl)c4)c(F)c3)c2)cn1 [Example 263, (S)-4-(2-amino-5-(1-methyl-1H-pyrazol-4-yl)pyridin-3-yl)-N-(1-(3-chlorophenyl)-2-hydroxyethyl)-2-fluorobenzamide]
19 | – | 0.429 nM | 0.518 nM | Nc1ncc(C2CCOCC2)nc1-c1ccc(C(=O)N[C@H](CO)c2cccc(F)c2)c(F)c1 [Example 279, (S)-4-(3-amino-6-(tetrahydro-2H-pyran-4-yl)pyrazin-2-yl)-2-fluoro-N-(1-(3-fluorophenyl)-2-hydroxyethyl) benzamide]
20 | – | 0.0378 nM | 0.169 nM | Cc1cccc([C@@H](CO)NC(=O)c2ccc(-c3cc(-c4cn(C)nc4C)cnc3N)cc2F)c1 [Example 283, (S)-4-(2-amino-5-(1,3-dimethyl-1H-pyrazol-4-yl)pyridin-3-yl)-2-fluoro-N-(2-hydroxy-1-(m-tolyl)ethyl) benzamide]
21 | – | 0.0814 nM | 0.192 nM | Cn1cc(-c2cnc(N)c(-c3ccc(C(=O)N[C@H](CO)c4cc(F)cc(Cl)c4)c(F)c3)c2)cn1 [Example 289, (S)-4-(2-amino-5-(1-methyl-1H-pyrazol-4-yl)pyridin-3-yl)-N-(1-(3-chloro-5-fluorophenyl)-2-hydroxyethyl)-2-fluorobenzamide]
22 | – | 0.0715 nM | 0.153 nM | CCn1cc(-c2cnc(N)c(-c3ccc(C(=O)N[C@H](CO)c4cccc(Cl)c4)c(F)c3)c2)cn1 [Example 297, (S)-4-(2-amino-5-(1-ethyl-1H-pyrazol-4-yl)pyridin-3-yl)-N-(1-(3-chlorophenyl)-2-hydroxyethyl)-2-fluorobenzamide]
23 | – | 0.0655 nM | 0.228 nM | Cn1nncc1-c1cnc(N)c(-c2ccc(C(=O)N[C@H](CO)c3cccc(Cl)c3)c(F)c2)c1 [Example 300, (S)-4-(2-amino-5-(1-methyl-1H-1,2,3-triazol-5-yl)pyridin-3-yl)-N-(1-(3-chlorophenyl)-2-hydroxyethyl)-2-fluorobenzamide]
24 | – | 0.0263 nM | 0.104 nM | Cc1cccc([C@@H](CO)NC(=O)c2ccc(-c3nc(C4CCOCC4)cnc3N)cc2F)c1 [Example 309, (S)-4-(3-amino-6-(tetrahydro-2H-pyran-4-yl)pyrazin-2-yl)-2-fluoro-N-(2-hydroxy-1-(m-tolyl)ethyl) benzamide]
25 | – | 0.0614 nM | 0.147 nM | C[C@@H](NC(=O)c1ccc(-c2nc(C3CCCCC3)cnc2N)cc1F)c1cc(F)cc(S(C)(=O)=O)c1 [Example 423, (R)-4-(3-amino-6-cyclo-hexylpyrazin-2-yl)-2-fluoro-N-(1-(3-fluoro-5-(methylsulfonyl)phenyl)ethyl) benzamide]
26 | – | 0.359 nM | 0.907 nM | Nc1ncc(C2=CCCCC2)nc1-c1ccc(C(=O)N[C@H](CO)c2cccc(Cl)c2)c(F)c1 [Example 425, (S)-4-(3-amino-6-(cyclohex-1-en-1-yl)pyrazin-2-yl)-N-(1-(3-chlorophenyl)-2-hydroxyethyl)-2-fluorobenzamide]
27 | – | 0.585 nM | 1.36 nM | C[C@@H](NC(=O)c1ccc(-c2nc(C3=CCCCC3)cnc2N)cc1F)c1cc(F)cc(S(C)(=O)=O)c1 [Example 426, (R)-4-(3-amino-6-(cyclohex-1-en-1-yl)pyrazin-2-yl)-2-fluoro-N-(1-(3-fluoro-5-(methylsulfonyl)phenyl)ethyl) benzamide]
28 | – | 0.0759 nM | 0.219 nM | Nc1ncc(C2=CCOCC2)nc1-c1ccc(C(=O)N[C@H](CO)c2cccc(Cl)c2)c(F)c1 [Example 428, (S)-4-(3-amino-6-(3,6-dihydro-2H-pyran-4-yl)pyrazin-2-yl)-N-(1-(3-chlorophenyl)-2-hydroxyethyl)-2-fluorobenzamide]
29 | – | 0.221 nM | 0.503 nM | C[C@@H](NC(=O)c1ccc(-c2nc(C3=CCOCC3)cnc2N)cc1F)c1cc(F)cc(S(C)(=O)=O)c1 [Example 429, (R)-4-(3-amino-6-(3,6-dihydro-2H-pyran-4-yl)pyrazin-2-yl)-2-fluoro-N-(1-(3-fluoro-5-(methylsulfonyl)phenyl)ethyl) benzamide]
30 | – | 0.343 nM | 0.787 nM | COCC(=O)N[C@H]1CC[C@H](c2cnc(N)c(-c3ccc(C(=O)N[C@H](CO)c4cccc(Cl)c4)c(F)c3)n2)CC1 [Example 430, 4-(3-amino-6-((1r,4S)-4-(2-methoxy-acetamido)cyclohexyl)pyrazin-2-yl)-N-((S)-1-(3-chlorophenyl)-2-hydroxyethyl)-2-fluorobenzamide]
